Test results as given in patent publication US10675303B2, “Extracellular matrix compositions for the treatment of cancer” (ADAPTIVE BIOLOGIX, INC., priority 2008, dated 2020).

Key:
C6 cells = assay: Tumor growth of C6 cells in nude mice; format: in vivo; details: compared to no treatment control (FIG. 12)
Procedure: (§1) Tumor growth of B16 cells, C6 cells, or MDA435 cells in the presence or absence of ECM, and with or without cisplatin, were examined in nude mice. Cells, ECM and Cisplatin were injected simultaneously subcutaneously in the lower haunch of a nude mouse. Tumor growth was followed over time using photography, measurements of length and width, then finally by weight. FIGS. 8 and 9 show the growth of tumors from C6 cells in nude mice in the presence (FIG. 9) and absence (FIG. 8) of ECM on day 14 post-injection. FIGS. 10 and 11 show the growth of tumors from C6 cells in nude mice in the presence of ECM with cisplatin (FIG. 10) and cisplatin without ECM (FIG. 11) of ECM on day 14 post-injection.

MDA435 cells = assay: Tumor growth of MDA435 cells in nude mice; format: in vivo
Procedure: as §1

N.N.[Cl][Pt][Cl] [cisplatin]
tumor growth of C6 cells over 18 days (C6 cells): no growth
tumor growth of MDA435 cells over 25 days (MDA435 cells; nude mice, compared to no treatment control (FIG. 14)): reduction in tumor mass to zero
tumor growth of MDA435 cells in nude mice (MDA435 cells; versus no treatment control with palpable tumors (FIGS. 13A-D)): reduced or no tumor growth
